biological target: human Gal-3 (hGal-3) (Homo sapiens (Human), UniProt P17931); experiment: Competitive binding assay: biotinylated hGal-3 binding to microplate-adsorbed asialofetuin (ASF); details: Activity on hGal-3; mean values of several measurements; mixture of diastereomers measured where not separated
Experimental: The inhibitory activity of compounds is determined in competitive binding assays. This spectrophotometric assay measures the binding of biotinylated human Gal-3 (hGal-3) or human Gal-1 (hGal-1), respectively, to a microplate-adsorbed glycoprotein, asialofetuin (ASF) (Proc Natl Acad Sci USA. 2013 Mar 26;110(13):5052-7.). Alternatively, and preferably, a human Gal-1 version in which all six cysteines are substituted by serines may be used.
Briefly, compounds are serially diluted in DMSO (working dilutions).
Plates are incubated for 3 hours at 4° C., then washed with cold assay buffer (3×50 uL), incubated for 1 hour with 25 μL/well of a streptavidin-peroxidase solution (diluted in assay buffer to 80 ng/mL) at 4° C., followed by further washing steps with assay buffer (3×50 uL). Finally, 25 μL/well of ABTS substrate is added.
The calculated IC50 values may fluctuate depending on the daily assay performance. Fluctuations of this kind are known to those skilled in the art. IC50 values from several measurements are given as mean values.

Sequence of human Gal-3 (hGal-3) (P17931 whole entry): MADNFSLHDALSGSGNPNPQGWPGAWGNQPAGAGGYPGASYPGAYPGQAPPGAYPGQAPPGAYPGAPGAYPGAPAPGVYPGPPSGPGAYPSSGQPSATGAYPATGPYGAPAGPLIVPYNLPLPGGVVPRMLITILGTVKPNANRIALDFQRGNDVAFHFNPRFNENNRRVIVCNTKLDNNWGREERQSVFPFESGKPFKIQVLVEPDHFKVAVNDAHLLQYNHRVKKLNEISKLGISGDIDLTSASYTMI

Row | Compound | IC50 [nM]
1 | CO[C@@H]1[C@@H](n2cc(-c3cc(F)c(F)c(F)c3)nn2)[C@@H](O)[C@@H](CO)O[C@H]1C(=O)N(c1cc(C)cc(Br)c1)[C@@H]1COC[C@H]1O [Example 37, (2R,3R,4S,5R,6R)-N-(3-bromo-5-methylphenyl)-5-hydroxy-6-(hydroxymethyl)-N-((3R,4S)-4-hydroxytetrahydrofuran-3-yl)-3-methoxy-4-(4-(3,4,5-trifluorophenyl)-1H-1,2,3-triazol-1-yl)tetrahydro-2H-pyran-2-carboxamide] | 186
2 | COc1cc(C#N)cc(N(C(=O)[C@@H]2O[C@H](CO)[C@H](O)[C@H](n3cc(-c4cc(F)c(F)c(F)c4)nn3)[C@H]2OC)[C@@H]2COC[C@H]2O)c1 [Example 38, (2R,3R,4S,5R,6R)-N-(3-cyano-5-methoxyphenyl)-5-hydroxy-6-(hydroxymethyl)-N-((3R,4S)-4-hydroxytetrahydrofuran-3-yl)-3-methoxy-4-(4-(3,4,5-trifluorophenyl)-1H-1,2,3-triazol-1-yl)tetrahydro-2H-pyran-2-carboxamide] | 113
3 | CO[C@@H]1[C@@H](n2cc(-c3cc(F)c(F)c(F)c3)nn2)[C@@H](O)[C@@H](CO)O[C@H]1C(=O)N(c1cc(F)cc(C#N)c1)[C@@H]1COC[C@H]1O [Example 40, (2R,3R,4S,5R,6R)-N-(3-cyano-5-fluorophenyl)-5-hydroxy-6-(hydroxymethyl)-N-((3R,4S)-4-hydroxytetrahydrofuran-3-yl)-3-methoxy-4-(4-(3,4,5-trifluorophenyl)-1H-1,2,3-triazol-1-yl)tetrahydro-2H-pyran-2-carboxamide] | 145
4 | CO[C@@H]1[C@@H](n2cc(-c3ccc(Br)c(F)c3F)nn2)[C@@H](O)[C@@H](CO)O[C@H]1C(=O)N(c1cc(Cl)cc(Cl)c1)[C@@H]1COC[C@H]1O [Example 41, (2R,3R,4S,5R,6R)-4-(4-(4-bromo-2,3-difluorophenyl)-1H-1,2,3-triazol-1-yl)-N-(3,5-dichlorophenyl)-5-hydroxy-6-(hydroxymethyl)-N-((3R,4S)-4-hydroxytetrahydrofuran-3-yl)-3-methoxytetrahydro-2H-pyran-2-carboxamide] | 63
5 | CO[C@@H]1[C@@H](n2cc(-c3ccc(Br)c(F)c3F)nn2)[C@@H](O)[C@@H](CO)O[C@H]1C(=O)N(c1cc(Br)cc(C#N)c1)[C@@H]1COC[C@H]1O [Example 42, (2R,3R,4S,5R,6R)-4-(4-(4-bromo-2,3-difluorophenyl)-1H-1,2,3-triazol-1-yl)-N-(3-bromo-5-cyanophenyl)-5-hydroxy-6-(hydroxymethyl)-N-((3R,4S)-4-hydroxytetrahydrofuran-3-yl)-3-methoxytetrahydro-2H-pyran-2-carboxamide] | 37
6 | CO[C@@H]1[C@@H](n2cc(-c3ccc(Br)c(F)c3F)nn2)[C@@H](O)[C@@H](CO)O[C@H]1C(=O)N(c1cc(C)cc(Br)c1)[C@@H]1COC[C@H]1O [Example 43, (2R,3R,4S,5R,6R)-4-(4-(4-bromo-2,3-difluorophenyl)-1H-1,2,3-triazol-1-yl)-N-(3-bromo-5-methylphenyl)-5-hydroxy-6-(hydroxymethyl)-N-((3R,4S)-4-hydroxytetrahydrofuran-3-yl)-3-methoxytetrahydro-2H-pyran-2-carboxamide] | 33
7 | CO[C@@H]1[C@@H](n2cc(-c3cc(F)c(C)c(F)c3)nn2)[C@@H](O)[C@@H](CO)O[C@H]1C(=O)N(c1cc(Br)cc(Br)c1)[C@@H]1COC[C@H]1O [Example 45, (2R,3R,4S,5R,6R)-N-(3,5-dibromophenyl)-4-(4-(3,5-difluoro-4-methylphenyl)-1H-1,2,3-triazol-1-yl)-5-hydroxy-6-(hydroxymethyl)-N-((3R,4S)-4-hydroxytetrahydrofuran-3-yl)-3-methoxytetrahydro-2H-pyran-2-carboxamide] | 59
8 | CO[C@@H]1[C@@H](n2cc(-c3cc(F)c(C)c(F)c3)nn2)[C@@H](O)[C@@H](CO)O[C@H]1C(=O)N(c1cc(Br)cc(C#N)c1)[C@@H]1COC[C@H]1O [Example 46, (2R,3R,4S,5R,6R)-N-(3-bromo-5-cyanophenyl)-4-(4-(3,5-difluoro-4-methylphenyl)-1H-1,2,3-triazol-1-yl)-5-hydroxy-6-(hydroxymethyl)-N-((3R,4S)-4-hydroxytetrahydrofuran-3-yl)-3-methoxytetrahydro-2H-pyran-2-carboxamide] | 81
9 | CO[C@@H]1[C@@H](n2cc(-c3cc(F)c(C)c(F)c3)nn2)[C@@H](O)[C@@H](CO)O[C@H]1C(=O)N(c1cc(C)cc(Br)c1)[C@@H]1COC[C@H]1O [Example 47, (2R,3R,4S,5R,6R)-N-(3-bromo-5-methylphenyl)-4-(4-(3,5-difluoro-4-methylphenyl)-1H-1,2,3-triazol-1-yl)-5-hydroxy-6-(hydroxymethyl)-N-((3R,4S)-4-hydroxytetrahydrofuran-3-yl)-3-methoxytetrahydro-2H-pyran-2-carboxamide] | 72
10 | CO[C@@H]1[C@@H](n2cc(-c3ccc(C)c(F)c3F)nn2)[C@@H](O)[C@@H](CO)O[C@H]1C(=O)N(c1cc(Br)cc(C#N)c1)[C@@H]1COC[C@H]1O [Example 49, (2R,3R,4S,5R,6R)-N-(3-bromo-5-cyanophenyl)-4-(4-(2,3-difluoro-4-methylphenyl)-1H-1,2,3-triazol-1-yl)-5-hydroxy-6-(hydroxymethyl)-N-((3R,4S)-4-hydroxytetrahydrofuran-3-yl)-3-methoxytetrahydro-2H-pyran-2-carboxamide] | 18
11 | CO[C@@H]1[C@@H](n2cc(-c3cc(F)c(Cl)c(F)c3)nn2)[C@@H](O)[C@@H](CO)O[C@H]1C(=O)N(c1cc(Br)cc(Br)c1)[C@@H]1COC[C@H]1O [Example 52, (2R,3R,4S,5R,6R)-4-(4-(4-chloro-3,5-difluorophenyl)-1H-1,2,3-triazol-1-yl)-N-(3,5-dibromophenyl)-5-hydroxy-6-(hydroxymethyl)-N-((3R,4S)-4-hydroxytetrahydrofuran-3-yl)-3-methoxytetrahydro-2H-pyran-2-carboxamide] | 86
12 | CO[C@@H]1[C@@H](n2cc(-c3cc(F)c(Cl)c(F)c3)nn2)[C@@H](O)[C@@H](CO)O[C@H]1C(=O)N(c1cc(C)cc(Br)c1)[C@@H]1COC[C@H]1O [Example 54, (2R,3R,4S,5R,6R)-N-(3-bromo-5-methylphenyl)-4-(4-(4-chloro-3,5-difluorophenyl)-1H-1,2,3-triazol-1-yl)-5-hydroxy-6-(hydroxymethyl)-N-((3R,4S)-4-hydroxytetrahydrofuran-3-yl)-3-methoxytetrahydro-2H-pyran-2-carboxamide] | 89

The remaining lines, values ahead:

Row | IC50 [nM] | Compound
13 | 69 | CO[C@@H]1[C@@H](n2cc(-c3cc(F)c(F)c(F)c3)nn2)[C@@H](O)[C@@H](CO)O[C@H]1C(=O)N(c1cc(C)cc(C#N)c1)[C@@H]1COC[C@H]1O [Example 39, (2R,3R,4S,5R,6R)-N-(3-cyano-5-methylphenyl)-5-hydroxy-6-(hydroxymethyl)-N-((3R,4S)-4-hydroxytetrahydrofuran-3-yl)-3-methoxy-4-(4-(3,4,5-trifluorophenyl)-1H-1,2,3-triazol-1-yl)tetrahydro-2H-pyran-2-carboxamide]
14 | 81 | CO[C@@H]1[C@@H](n2cc(-c3cc(F)c(C)c(F)c3)nn2)[C@@H](O)[C@@H](CO)O[C@H]1C(=O)N(c1cc(Cl)cc(Cl)c1)[C@@H]1COC[C@H]1O [Example 44, (2R,3R,4S,5R,6R)-N-(3,5-dichlorophenyl)-4-(4-(3,5-difluoro-4-methylphenyl)-1H-1,2,3-triazol-1-yl)-5-hydroxy-6-(hydroxymethyl)-N-((3R,4S)-4-hydroxytetrahydrofuran-3-yl)-3-methoxytetrahydro-2H-pyran-2-carboxamide]
15 | 29 | CO[C@@H]1[C@@H](n2cc(-c3ccc(C)c(F)c3F)nn2)[C@@H](O)[C@@H](CO)O[C@H]1C(=O)N(c1cc(Cl)cc(Cl)c1)[C@@H]1COC[C@H]1O [Example 48, (2R,3R,4S,5R,6R)-N-(3,5-dichlorophenyl)-4-(4-(2,3-difluoro-4-methylphenyl)-1H-1,2,3-triazol-1-yl)-5-hydroxy-6-(hydroxymethyl)-N-((3R,4S)-4-hydroxytetrahydrofuran-3-yl)-3-methoxytetrahydro-2H-pyran-2-carboxamide]
16 | 34 | CO[C@@H]1[C@@H](n2cc(-c3ccc(C)c(F)c3F)nn2)[C@@H](O)[C@@H](CO)O[C@H]1C(=O)N(c1cc(C)cc(Br)c1)[C@@H]1COC[C@H]1O [Example 50, (2R,3R,4S,5R,6R)-N-(3-bromo-5-methylphenyl)-4-(4-(2,3-difluoro-4-methylphenyl)-1H-1,2,3-triazol-1-yl)-5-hydroxy-6-(hydroxymethyl)-N-((3R,4S)-4-hydroxytetrahydrofuran-3-yl)-3-methoxytetrahydro-2H-pyran-2-carboxamide]
17 | 73 | CO[C@@H]1[C@@H](n2cc(-c3cc(F)c(Cl)c(F)c3)nn2)[C@@H](O)[C@@H](CO)O[C@H]1C(=O)N(c1cc(Cl)cc(Cl)c1)[C@@H]1COC[C@H]1O [Example 51, (2R,3R,4S,5R,6R)-4-(4-(4-chloro-3,5-difluorophenyl)-1H-1,2,3-triazol-1-yl)-N-(3,5-dichlorophenyl)-5-hydroxy-6-(hydroxymethyl)-N-((3R,4S)-4-hydroxytetrahydrofuran-3-yl)-3-methoxytetrahydro-2H-pyran-2-carboxamide]
18 | 164 | CO[C@@H]1[C@@H](n2cc(-c3ccc(Cl)c(Cl)c3)nn2)[C@@H](O)[C@@H](CO)O[C@H]1C(=O)N(c1cc(Cl)cc(Cl)c1)[C@@H]1COC[C@H]1O [Example 55, (2R,3R,4S,5R,6R)-N-(3,5-dichlorophenyl)-4-(4-(3,4-dichlorophenyl)-1H-1,2,3-triazol-1-yl)-5-hydroxy-6-(hydroxymethyl)-N-((3R,4S)-4-hydroxytetrahydrofuran-3-yl)-3-methoxytetrahydro-2H-pyran-2-carboxamide]
